Here are results for 30 molecules from ChEMBL document CHEMBL2434959, “Identification and characterization of novel indole based small molecules as anticancer agents through SIRT1 inhibition” (Eur J Med Chem, 2013).

Data set [1] can be described thus: Lipophilicity, log P of the compound. It counts as physicochemical. The note with it: octanol/water.
In the next data set the test system is MDA-MB-231. As to the kind of experiment: Growth inhibition of human MDA-MB-231 cells at 10 uM after 24 hrs by MTT assay. The data set is classed as functional. The note with it: MDA-MB-231, 24 h, read-out: GI. (Tetrazolium dyes change colour on reduction, which living cells bring about.)
The subject of another data set is K562. Nature of the data set: Growth inhibition of human K562 cells at 10 uM after 24 hrs by MTT assay. The data set is classed as functional. The settings on record: K562, 24 h, read-out: GI.
In a further data set the test system is LNCaP. As to the kind of experiment: Growth inhibition of human LNCAP cells at 10 uM after 24 hrs by MTT assay. The data set is classed as functional. The settings on record: read-out: GI.
In data set [2] the test system is Rattus norvegicus. As to the kind of experiment: Inhibition of testosterone propionate-induced prostate hyperplasia in Wistar rat assessed as retention of normal cell morphology at 5 mg/kg, ip co-administered with testosterone propionate for 14 days by hematoxylin/eosin staining method. The arrangement: dose 5 mg/kg. The data set is classed as functional, organism-based.

The test system of data set [3] is Rattus norvegicus. Nature of the data set: Inhibition of testosterone propionate-induced prostate hyperplasia in Wistar rat assessed as reduction in histoarchitecture disruption at 5 mg/kg, ip co-administered with testosterone propionate for 14 days by hematoxylin/eosin staining method. It counts as functional, organism-based. The arrangement: dose 5 mg/kg. The note with it: Prostate gland.

Data set [4] deals with Rattus norvegicus. Nature of the data set: Inhibition of testosterone propionate-induced prostate hyperplasia in Wistar rat assessed as seminal vesicle weight at 5 mg/kg, ip co-administered with testosterone propionate for 14 days (reference value: 1.6071 +/- 0.0821 g). It counts as functional, Prostate gland. The note with it: route intraperitoneal.
Data set [5] concerns Rattus norvegicus. As to the kind of experiment: Inhibition of testosterone propionate-induced prostate hyperplasia in Wistar rat assessed as ratio of prostate weight to body weight at 5 mg/kg, ip co-administered with testosterone propionate for 14 days (reference value: 3.1634 +/- 0.1264 no unit). The settings on record: route intraperitoneal. The data set is classed as functional, Prostate gland.

For data set [6], the system named is Rattus norvegicus. Nature of the data set: Inhibition of testosterone propionate-induced prostate hyperplasia in Wistar rat assessed as prostate weight at 5 mg/kg, ip co-administered with testosterone propionate for 14 days (reference value: 0.838 +/- 0.0293 g). The settings on record: route intraperitoneal. The data set is classed as functional, Prostate gland.

Data set [7] has as its system Rattus norvegicus. Nature of the data set: Inhibition of testosterone propionate-induced prostate hyperplasia in Wistar rat assessed as reduction in SIRT1 mRNA level in prostate tissue at 10 mg/kg, ip co-administered with testosterone propionate for 14 days by RT-PCR analysis. The data set is classed as functional, organism-based. The arrangement: dose 10 mg/kg. The settings on record: Prostate gland.

Data set [8] relates to Rattus norvegicus. Nature of the data set: Inhibition of testosterone propionate-induced prostate hyperplasia in Wistar rat assessed as retention of normal cell morphology at 10 mg/kg, ip co-administered with testosterone propionate for 14 days by hematoxylin/eosin staining method. It counts as functional, organism-based. The arrangement: dose 10 mg/kg.
Data set [9] relates to Rattus norvegicus. As to the kind of experiment: Inhibition of testosterone propionate-induced prostate hyperplasia in Wistar rat assessed as reduction in histoarchitecture disruption at 10 mg/kg, ip co-administered with testosterone propionate for 14 days by hematoxylin/eosin staining method. It counts as functional, organism-based. Details: dose 10 mg/kg. The settings on record: Prostate gland.

For data set [10], the system named is Rattus norvegicus. As to the kind of experiment: Inhibition of testosterone propionate-induced prostate hyperplasia in Wistar rat at 10 mg/kg, ip co-administered with testosterone propionate for 14 days. It counts as functional. The settings on record: Prostate gland, 336 h, route intraperitoneal.
The test system of data set [11] is Rattus norvegicus. Nature of the data set: Inhibition of testosterone propionate-induced prostate hyperplasia in Wistar rat assessed as ratio of prostate weight to body weight at 10 mg/kg, ip co-administered with testosterone propionate for 14 days (reference value: 3.1634 +/- 0.1264 no unit). It counts as functional, Prostate gland. The settings on record: route intraperitoneal.

For data set [12], the system named is Rattus norvegicus. Nature of the data set: Inhibition of testosterone propionate-induced prostate hyperplasia in Wistar rat assessed as seminal vesicle weight at 10 mg/kg, ip co-administered with testosterone propionate for 14 days (reference value: 1.6071 +/- 0.0821 g). It counts as functional, Prostate gland. The note with it: route intraperitoneal.
For data set [13], the system named is Rattus norvegicus. Nature of the data set: Inhibition of testosterone propionate-induced prostate hyperplasia in Wistar rat assessed as prostate weight at 10 mg/kg, ip co-administered with testosterone propionate for 14 days (reference value: 0.838 +/- 0.0293 g). The data set is classed as functional, Prostate gland. The settings on record: route intraperitoneal.

Data set [14] concerns the target T1, NAD-dependent protein deacetylase sirtuin-1 (Homo sapiens) (UniProt Q96EB6).
T1 sequence (whole entry): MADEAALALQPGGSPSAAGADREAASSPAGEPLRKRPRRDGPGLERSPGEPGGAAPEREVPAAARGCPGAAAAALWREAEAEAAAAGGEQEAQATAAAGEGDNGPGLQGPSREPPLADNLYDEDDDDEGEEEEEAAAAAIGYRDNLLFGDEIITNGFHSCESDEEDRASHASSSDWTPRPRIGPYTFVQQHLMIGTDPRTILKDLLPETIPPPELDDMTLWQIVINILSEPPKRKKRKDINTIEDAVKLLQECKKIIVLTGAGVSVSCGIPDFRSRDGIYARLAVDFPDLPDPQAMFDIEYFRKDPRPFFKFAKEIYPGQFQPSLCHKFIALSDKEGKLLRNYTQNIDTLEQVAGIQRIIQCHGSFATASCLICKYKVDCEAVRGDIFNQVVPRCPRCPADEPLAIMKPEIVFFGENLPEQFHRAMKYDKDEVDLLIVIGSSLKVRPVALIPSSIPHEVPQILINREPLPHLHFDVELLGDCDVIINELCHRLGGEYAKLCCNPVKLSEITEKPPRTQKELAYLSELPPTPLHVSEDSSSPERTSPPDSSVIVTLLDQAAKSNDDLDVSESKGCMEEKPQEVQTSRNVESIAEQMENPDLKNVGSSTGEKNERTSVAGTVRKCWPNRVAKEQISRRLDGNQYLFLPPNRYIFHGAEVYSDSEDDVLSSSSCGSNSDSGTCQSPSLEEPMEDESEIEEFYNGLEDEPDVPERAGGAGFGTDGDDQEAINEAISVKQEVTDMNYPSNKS
As to the kind of experiment: Inhibition of recombinant human SIRT1 using AMC-Arg-His-Lys-Lys(Ac) as substrate at 40 uM after 45 mins by fluorimetric assay.

The source made the active and inactive calls. The calls are words filed in the database; no cut-off is given here.

For the molecule `CC(C)Sc1nnc(-c2c(CNCCN3CCOCC3)c3ccccc3n2C)n1-c1ccccc1`, in data set [1], the logP (in general, the decadic logarithm of the partition coefficient of the neutral form, usually between octanol and water) came out at 4.12.

`CC(C)Sc1nnc(-c2c(CNCCN3CCOCC3)c3cc(F)ccc3n2C)n1-c1ccccc1` showed a logP in [1] of 4.28.

On to `COc1ccc(CNCc2c(-c3nnc(SC(C)C)n3-c3ccccc3)n(C)c3ccccc23)cc1`, for which the logP in data set [1] was determined as 6.27. Further, the inhibition of growth at 10 µM in the data set with MDA-MB-231 is more than 50%.

For the molecule `CC(C)Sc1nnc(-c2c(CNCCN3CCCC3)c3ccccc3n2C)n1-c1ccccc1`, the log partition coefficient (logP) in [1] was determined as 4.83.

Consider `CC(C)Sc1nnc(-c2c(CN3CCOCC3)c3ccccc3n2C)n1-c1ccccc1`, for which the logP in [1] was determined as 4.5.

Regarding `CC(C)Sc1nnc(-c2c(CNCC3CC3)c3ccccc3n2C)n1-c1ccccc1`, the logP in data set [1] is 5.24. Further, in the data set on K562, the inhibition of growth at 10 µM was more than 50%.

In turn, `CC(C)Sc1nnc(-c2c(CNCCN3CCCC3)c3cc(F)ccc3n2C)n1-c1ccccc1` showed a logP in data set [1] of 4.99.

In the case of `COc1cc(NCc2c(-c3nnc(SC(C)C)n3-c3ccccc3)n(C)c3ccccc23)cc(OC)c1OC`, the logP in [1] is 5.8.

Consider `CC1CCN(Cc2c(-c3nnc(SC(C)C)n3-c3ccccc3)n(C)c3ccc(F)cc23)CC1`, for which, in [1], the logP stood at 6.12. In addition, the inhibition of growth at 10 µM in the data set with LNCaP and in the data set with MDA-MB-231 was more than 50% in each case.

Regarding `CC(C)Sc1nnc(-c2c(CNC3CC3)c3cc(F)ccc3n2C)n1-c1ccccc1`, in data set [1], the logP worked out at 4.97. Further, the inhibition of growth at 10 µM with MDA-MB-231 and in the data set with K562 was more than 50% in each case.

In data set [1], `CC(C)Sc1nnc(-c2c(CNCC3CC3)c3cc(F)ccc3n2C)n1-c1ccccc1` displayed a logP of 5.4. Besides, the inhibition of growth at 10 µM in the data set on MDA-MB-231 and in the data set with K562 was more than 50% in each case.

For the molecule `CC(C)(C)NC(=O)[C@H]1CC[C@H]2[C@@H]3CC[C@H]4NC(=O)C=C[C@]4(C)[C@H]3CC[C@]12C` [FINASTERIDE], the inhibition entry with Rattus norvegicus [2] and with Rattus norvegicus [3] was “Active” in each case. In addition, the Activity came out at 0.9051 g with Rattus norvegicus [4] and 0.556 g with Rattus norvegicus [6]. In addition, the Ratio with Rattus norvegicus [5] is on record as 0.002471.

Take `CC(C)Sc1nnc(-c2c(CN3CCOCC3)c3cc(F)ccc3n2C)n1-c1ccccc1`: the logP in data set [1] is 4.65. In the data set with K562, the inhibition of growth at 10 µM was 88%.

For `COc1ccc(CNCc2c(-c3nnc(SC(C)C)n3-c3ccccc3)n(C)c3ccc(F)cc23)cc1`, the log partition coefficient (logP) in [1] is 6.42. In addition, the inhibition entry with Rattus norvegicus [7], with Rattus norvegicus [8] and in the data set on Rattus norvegicus [9] was “Active” each time. Moreover, in the data set on Rattus norvegicus [10], the inhibition in vivo – broadly, the share of the control response that was lost under treatment – at 10 mg/kg worked out at 70.5%. Moreover, the Ratio in the data set with Rattus norvegicus [11] stood at 0.002298. Further, the results for the Activity in the data set with Rattus norvegicus [12] and in the data set with Rattus norvegicus [13] were 0.619 g and 0.537 g, respectively. In addition, the inhibition (as a rule, the change of the read-out against control, counted positive when it falls) in [14] came out at 70%. The inhibition of growth at 10 µM in the data set on LNCaP and with MDA-MB-231 was more than 50% in each case.

`CC1CCCN(Cc2c(-c3nnc(SC(C)C)n3-c3ccccc3)n(C)c3ccc(F)cc23)C1` (stereo not given) had a logP in data set [1] of 6.18. In the data set with MDA-MB-231, the inhibition of growth at 10 µM was more than 50%.

Take `COc1cccc(CNCc2c(-c3nnc(SC(C)C)n3-c3ccccc3)n(C)c3ccc(F)cc23)c1`: in data set [1], the logP was 6.42. Besides, the inhibition of growth at 10 µM with MDA-MB-231 is more than 50%.

With `CC(C)Sc1nnc(-c2c(CNCCCN3CCOCC3)c3ccccc3n2C)n1-c1ccccc1`, the logP in data set [1] came to 4.22.

In turn, `CC(C)Sc1nnc(-c2c(CN3CCCCC3C)c3ccccc3n2C)n1-c1ccccc1` (stereo not given) came in with a logP in [1] of 5.95.

In the case of `CC1CCN(Cc2c(-c3nnc(SC(C)C)n3-c3ccccc3)n(C)c3ccccc23)CC1`, in data set [1], the lipophilicity (logP) was 5.96. The inhibition of growth at 10 µM with K562 is 88%.

In data set [1], `COc1cc(NCc2c(-c3nnc(SC(C)C)n3-c3ccccc3)n(C)c3ccc(F)cc23)cc(OC)c1OC` came in with a logP of 5.96. Further, the inhibition of growth at 10 µM with K562 was more than 50%.

`COCCNCc1c(-c2nnc(SC(C)C)n2-c2ccccc2)n(C)c2ccc(F)cc12`: in data set [1], the logP stood at 4.52. Besides, in the data set on LNCaP, the inhibition of growth at 10 µM is more than 50%.

In turn, `COCCNCc1c(-c2nnc(SC(C)C)n2-c2ccccc2)n(C)c2ccccc12` displayed a logP in data set [1] of 4.36.

For the molecule `CC(C)Sc1nnc(-c2c(CNc3cnccn3)c3ccccc3n2C)n1-c1ccccc1`, the logP in [1] came to 4.22.

For the molecule `CC1CCCN(Cc2c(-c3nnc(SC(C)C)n3-c3ccccc3)n(C)c3ccccc23)C1` (stereo not given), the logP in [1] worked out at 6.03. In addition, the inhibition of growth at 10 µM in the data set on MDA-MB-231 is more than 50%.

In data set [1], `CC(C)Sc1nnc(-c2c(CNC3CC3)c3ccccc3n2C)n1-c1ccccc1` came in with a logP of 4.81.

`COc1cccc(CNCc2c(-c3nnc(SC(C)C)n3-c3ccccc3)n(C)c3ccccc23)c1` displayed a logP in data set [1] of 6.27. Besides, in the data set on MDA-MB-231, the inhibition of growth at 10 µM is more than 50%.

Turning to `CC1CN(Cc2c(-c3nnc(SC(C)C)n3-c3ccccc3)n(C)c3ccccc23)CC(C)O1` (stereo not given), in [1], the logP came to 5.13.

On to `CC(C)Sc1nnc(-c2c(CN3CCC(N4CCCC4)CC3)c3ccccc3n2C)n1-c1ccccc1`, for which the logP in data set [1] stood at 5.16.

`CC(C)Sc1nnc(-c2c(CNCCCN3CCOCC3)c3cc(F)ccc3n2C)n1-c1ccccc1` returned a logP in [1] of 4.38.

The molecule `CC(C)Sc1nnc(-c2c(CNc3nc4ccccc4[nH]3)c3ccccc3n2C)n1-c1ccccc1` came in with a logP in [1] of 5.94.
